Source: US9737525B2, “Small molecule activators of NRF2 pathway” (The General Hospital Corporation, priority 2013, dated 2017)

Tests used:
NRF2 responsive genes = experiment: Microarray gene expression profiling in mutant HTT ST14A cells (Case III); format: cell-based, rat; conditions: 5 μM 24 hours vs untreated
Method: RNA was extracted from HD mutant and wild type ST14A cells, differentiated for 24 hours and treated with vehicle (DMSO) or with 5 μM MIND4, using the RNeasy kit (Qiagen). Labeled cRNAs were prepared and hybridized to Affymetrix GeneChip Rat Genome 230 2.0 microarrays according to the manufacturer's instructions. Affymetrix CEL (intensity) files from hybridized arrays were imported into the Partek Genome Suite, Partek Incorporated, for biostatistical analysis. 2 CEL files were used for each experimental condition: wild type (WT) untreated, MIND4 treated (WT/MIND4), mutant (MTT) untreated, and mutant (MTT) MIND4-terated (MTT/MIND4). Two-way ANOVA was performed with interaction term included and three of the evaluated contrasts were of interest (Case I, II, and III). Gene lists were created for each of the three contrasts using the thresholds of absolute value of fold-change>1.5 and p-value with False Discovery Rate (FDR)<0.05. The lengths of the gene lists are for Case I (DP)-1765 genes, for Case II (TP)-1797 genes, and for Case III (MDDP)-268 genes. These three gene lists were imported into Ingenuity IPA for pathway and network analyses. These analyses provided Networks (graph structures of molecules connected by relationships in the IPA knowledgebase), Functions (lists of molecules grouped together due to their contribution to a biological function) and Canonical Pathways (molecules and relationships that participate in a biological pathway). Scores are assigned according to the probability that the genes from the user's list might appear in the function or pathway by chance (right-tailed Fisher's Exact Test).
To determine whether MIND4 might engage targets other than SIRT2, the gene expression changes in treated versus untreated mutant HTT and wild type ST14A cells were evaluated using an approach described previously (Luthi-Carter et al., 2010). RNA from rat embryonic striatal (ST14A) cells stably expressing a 546 amino acid HTT fragment containing either an expanded (128Q) or wild type (26Q) repeat was extracted following treatment with 5 μM MIND4 for 24 hours was extracted and run on Affymetrix rat microarrays (Affy GeneChip Rat Genome 230 2.0 array) as described above in General Methods. Two replicates for each of the experimental conditions were imported into Partek Genome Suite for biostatistical analysis. Genes showing significant differential expression were identified by ANOVA, for three contrasts, resulting in three gene-lists: mutant HD (MT) vs. wild type (WT)=Case I (Disease Phenotype); MT/MIND4 treated vs. WT=Case II (Treatment Phenotype), and MT/MIND4 treated vs. MT=Case III (Mutant Drug-Dependent Phenotype). These represented transcriptional alterations in MT compared to WT cells (Case I), in MT treated compared to WT cells (Case II), and in MT treated cells compared to untreated MT cells (Case III). The lists, Cases I-III, were then imported into Ingenuity Pathway Analysis (IPA—Ingenuity® Systems, www.ingenuity.com) for pathway and network analyses.

EGFP-NRF2 = experiment: Live-cell imaging of HEK293 cells expressing EGFP-NRF2 and KEAP1-mCherry; format: cell-based, human; conditions: 1 μM for 1 hr
Method: To examine the effect of MIND4-17 on the stabilization and sub-cellular localization of NRF2 in live cells, HEK293 cells (200,000 per dish) grown in α-MEM supplemented with 10% heat-inactivated FBS on 6-cm glass dishes, were co-transfected with constructs encoding EGFP-NRF2 and KEAP1-mCherry using Lipofectamine 2000 (Invitrogen) as described [Baird, 2013]. Cells were imaged 24 hr post-transfection before and after 1 hr-exposure to 1 μM MIND4-17. All images were acquired by confocal microscopy using a laser-scanning confocal microscope (LSM780; Carl Zeiss). The microscope was equipped with a thermostated chamber suitable to maintain the live cells and optics at constant 37° C. Imaging was performed using a 63× oil immersion NA 1.4 Plan-Apochromat objective from Zeiss.

## O=[N+]([O-])c1ccc(Sc2nnc(COc3ccccc3)n2-c2ccccc2)c2ncccc12 [MIND4, 5-nitro-8-{[5-(phenoxymethyl)-4-phenyl-4H-1,2,4-triazol-3-yl]thio}quinoline]
NRF2 responsive genes
  Fold Increase, AOX1: 3.18 fold
  Fold Increase, CAT: 1.72 fold
  Fold Increase, DNAJA4: 1.53 fold
  Fold Increase, DNAJB9: 1.63 fold
  Fold Increase, FRA1: 3.17 fold
  Fold Increase, GCLC: 2.11 fold
  Fold Increase, GCLM: 3.32 fold
  Fold Increase, GSR: 2.14 fold
  Fold Increase, GSTA3: 20.09 fold
  Fold Increase, GSTM5: 1.89 fold
  Fold Increase, GSTP1: 2.21 fold
  Fold Increase, GSTT2/GSTT2B: 1.96 fold
  Fold Increase, HERPUD1: 1.55 fold
  Fold Increase, HO-1: 6.14 fold
  Fold Increase, KEAP1: 1.53 fold
  Fold Increase, MAFF: 1.75 fold
  Fold Increase, MGST1: 1.84 fold
  Fold Increase, MGST2: 2.94 fold
  Fold Increase, MRP4: 3.37 fold
  Fold Increase, NQO1: 7.34 fold
  Fold Increase, SQSTM1: 1.82 fold
  Fold Increase, TRXR1: 3.31 fold

## O=[N+]([O-])c1ccc(Sc2nnc(COc3ccccc3)n2-c2ccccc2)nc1 [MIND4-17]
EGFP-NRF2
  Stabilization and sub-cellular localization of NRF2: stabilization and nuclear translocation of EGFP-NRF2
